Activity calls are given as the source filed them.
How the values were obtained:
[1] = target: T1, High affinity choline transporter 1 (Homo sapiens, UniProt Q9GZV3); assay: human choline transporter blockers, potency – cell-based, 5-point CRC, membrane potential dye, dose response (AID 504840); format: functional
T1 sequence (Q9GZV3 whole entry): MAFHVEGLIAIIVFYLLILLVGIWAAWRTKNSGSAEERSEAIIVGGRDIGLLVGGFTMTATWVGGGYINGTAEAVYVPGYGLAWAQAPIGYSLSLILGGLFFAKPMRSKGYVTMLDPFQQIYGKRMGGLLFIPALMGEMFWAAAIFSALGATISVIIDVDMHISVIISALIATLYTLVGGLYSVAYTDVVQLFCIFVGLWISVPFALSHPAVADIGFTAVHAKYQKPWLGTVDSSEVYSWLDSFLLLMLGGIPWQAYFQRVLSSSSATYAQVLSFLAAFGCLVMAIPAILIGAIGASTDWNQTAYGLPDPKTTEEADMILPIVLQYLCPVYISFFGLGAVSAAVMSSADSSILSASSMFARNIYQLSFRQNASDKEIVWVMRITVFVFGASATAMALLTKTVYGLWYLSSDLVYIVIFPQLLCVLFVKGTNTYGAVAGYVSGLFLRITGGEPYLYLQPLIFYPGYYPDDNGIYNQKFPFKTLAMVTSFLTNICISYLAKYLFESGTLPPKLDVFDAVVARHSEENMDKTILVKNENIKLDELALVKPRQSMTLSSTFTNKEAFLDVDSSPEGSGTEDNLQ

[2] = target: T2, Ubiquitin-conjugating enzyme E2 N (Homo sapiens, UniProt P61088); format: functional;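 also: Dose-response confirmation in a TR-FRET assay detecting UBC13-driven polyubiquitin chain formation, inhibition measured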
T2 sequence (P61088 whole entry): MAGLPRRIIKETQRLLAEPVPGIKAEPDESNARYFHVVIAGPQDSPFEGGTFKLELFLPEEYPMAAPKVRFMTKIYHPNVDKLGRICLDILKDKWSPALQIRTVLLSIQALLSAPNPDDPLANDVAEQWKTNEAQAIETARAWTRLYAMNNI

Cytochrome P450 2C9 = Cytochrome P450 2C9 (Homo sapiens, UniProt P11712)
Sequence of Cytochrome P450 2C9 (P11712 whole entry): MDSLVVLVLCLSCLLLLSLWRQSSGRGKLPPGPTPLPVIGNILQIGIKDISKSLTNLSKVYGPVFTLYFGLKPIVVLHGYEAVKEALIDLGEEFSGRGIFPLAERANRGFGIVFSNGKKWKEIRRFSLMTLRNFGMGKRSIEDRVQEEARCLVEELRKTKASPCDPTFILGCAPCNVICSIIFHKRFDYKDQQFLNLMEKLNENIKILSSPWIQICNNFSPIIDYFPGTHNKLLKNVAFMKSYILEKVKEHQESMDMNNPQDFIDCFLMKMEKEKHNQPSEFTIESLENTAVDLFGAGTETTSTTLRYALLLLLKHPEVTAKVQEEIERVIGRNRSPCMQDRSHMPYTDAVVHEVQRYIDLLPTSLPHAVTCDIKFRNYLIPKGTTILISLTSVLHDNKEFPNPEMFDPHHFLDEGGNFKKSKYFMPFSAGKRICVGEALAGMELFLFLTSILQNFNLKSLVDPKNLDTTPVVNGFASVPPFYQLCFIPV

cells [3] = format: functional, cell-based
cells [4] = format: functional, cell-based; remark: listed apart in the source
Cytochrome P450 1A2 = target: T3, Cytochrome P450 1A2 (Homo sapiens, UniProt P05177);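 also: PubChem cytochrome P450 panel assay, CYP1A2 panel member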
T3 sequence (P05177 whole entry): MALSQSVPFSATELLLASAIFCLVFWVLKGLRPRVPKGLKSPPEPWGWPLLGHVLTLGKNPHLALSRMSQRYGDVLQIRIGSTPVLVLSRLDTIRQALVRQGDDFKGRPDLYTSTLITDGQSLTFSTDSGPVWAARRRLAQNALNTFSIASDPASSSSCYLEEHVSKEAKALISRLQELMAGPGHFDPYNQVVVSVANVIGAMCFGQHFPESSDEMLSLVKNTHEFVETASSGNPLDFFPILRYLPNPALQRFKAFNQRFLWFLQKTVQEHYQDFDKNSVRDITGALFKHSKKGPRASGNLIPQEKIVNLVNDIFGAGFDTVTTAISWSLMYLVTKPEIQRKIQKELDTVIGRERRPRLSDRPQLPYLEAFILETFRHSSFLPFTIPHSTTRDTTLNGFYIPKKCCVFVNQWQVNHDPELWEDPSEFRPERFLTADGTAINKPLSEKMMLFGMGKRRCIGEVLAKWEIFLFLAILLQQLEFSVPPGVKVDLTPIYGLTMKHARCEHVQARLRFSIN

[5] = target: T4, Polyadenylate-binding protein 1 (Homo sapiens, UniProt P11940); assay: MLLE binding blockers, Cy5 peptide tracer – biochemical, fluorescence polarization, Cy5-PAM2 peptide, secondary, miRNA deadenylation inhibitor project, dose response (AID 602260); format: functional; conditions: read-out: IC50_Mean
T4 sequence (P11940 whole entry, the tested form may be a part): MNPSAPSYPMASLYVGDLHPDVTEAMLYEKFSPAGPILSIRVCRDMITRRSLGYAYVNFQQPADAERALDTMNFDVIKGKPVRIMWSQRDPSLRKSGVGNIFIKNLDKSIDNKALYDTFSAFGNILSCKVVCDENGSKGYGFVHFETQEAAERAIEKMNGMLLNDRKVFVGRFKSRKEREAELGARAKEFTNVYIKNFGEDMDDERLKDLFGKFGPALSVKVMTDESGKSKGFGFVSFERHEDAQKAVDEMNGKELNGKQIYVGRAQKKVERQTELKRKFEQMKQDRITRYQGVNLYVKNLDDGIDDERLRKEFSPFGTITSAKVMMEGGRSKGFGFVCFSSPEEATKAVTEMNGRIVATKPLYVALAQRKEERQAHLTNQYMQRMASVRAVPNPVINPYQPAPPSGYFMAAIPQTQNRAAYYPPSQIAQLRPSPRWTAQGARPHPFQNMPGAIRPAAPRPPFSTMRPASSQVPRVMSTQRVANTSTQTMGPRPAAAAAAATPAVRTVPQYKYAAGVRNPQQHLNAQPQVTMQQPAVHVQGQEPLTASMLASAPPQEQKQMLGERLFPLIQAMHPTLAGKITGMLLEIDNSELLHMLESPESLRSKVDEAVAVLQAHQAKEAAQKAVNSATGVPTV

[6] = target: T4, Polyadenylate-binding protein 1; assay: MLLE domain peptide-binding blockers, IC50 – biochemical, fluorescence polarization, FITC-PAM2 peptide, dose response (AID 602259); format: functional; conditions: read-out: IC50_Mean
[7] = microbe, parasite or virus in culture; format: functional; conditions: Mycobacterium tuberculosis
[8] = target: T5, Replicative DNA helicase DnaB (Mycobacterium tuberculosis, UniProt P9WMR3); assay: DnaB intein splicing inhibitors, dose response, biochemical, cell-free fluorescence (AID 449749); format: functional
T5 sequence (P9WMR3 whole entry): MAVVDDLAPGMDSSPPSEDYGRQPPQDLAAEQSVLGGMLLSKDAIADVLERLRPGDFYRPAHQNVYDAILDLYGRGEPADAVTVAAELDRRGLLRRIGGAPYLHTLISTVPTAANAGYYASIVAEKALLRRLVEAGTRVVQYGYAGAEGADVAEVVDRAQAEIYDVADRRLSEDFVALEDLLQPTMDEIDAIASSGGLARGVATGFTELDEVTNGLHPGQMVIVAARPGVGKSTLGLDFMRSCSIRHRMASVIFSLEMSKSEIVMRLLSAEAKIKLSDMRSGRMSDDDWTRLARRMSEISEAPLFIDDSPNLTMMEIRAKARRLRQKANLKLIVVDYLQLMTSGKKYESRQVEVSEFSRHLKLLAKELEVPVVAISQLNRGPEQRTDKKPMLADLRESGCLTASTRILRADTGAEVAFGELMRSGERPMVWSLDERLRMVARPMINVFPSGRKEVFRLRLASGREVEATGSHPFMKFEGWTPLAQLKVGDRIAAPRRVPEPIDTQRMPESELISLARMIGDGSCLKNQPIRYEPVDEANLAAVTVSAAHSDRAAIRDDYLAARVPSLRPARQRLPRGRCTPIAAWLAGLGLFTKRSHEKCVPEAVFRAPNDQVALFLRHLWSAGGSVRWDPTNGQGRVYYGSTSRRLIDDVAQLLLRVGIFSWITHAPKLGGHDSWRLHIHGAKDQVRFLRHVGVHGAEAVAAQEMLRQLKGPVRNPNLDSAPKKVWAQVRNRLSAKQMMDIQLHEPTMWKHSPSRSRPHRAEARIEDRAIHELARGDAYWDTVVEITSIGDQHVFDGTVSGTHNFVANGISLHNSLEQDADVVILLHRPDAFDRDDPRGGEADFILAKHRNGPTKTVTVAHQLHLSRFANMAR

Protein RecA = target: T6, Protein RecA (Mycobacterium tuberculosis, UniProt P9WHJ3); assay: Fluorescence Cell-Free Homogeneous Dose Retest to Identify Inhibitors of RecA-Intein Splicing Activity. [Related pubchem assays (depositor defined):AID2097, AID2223, AID489010, AID492950]; format: functional
T6 sequence (P9WHJ3 whole entry): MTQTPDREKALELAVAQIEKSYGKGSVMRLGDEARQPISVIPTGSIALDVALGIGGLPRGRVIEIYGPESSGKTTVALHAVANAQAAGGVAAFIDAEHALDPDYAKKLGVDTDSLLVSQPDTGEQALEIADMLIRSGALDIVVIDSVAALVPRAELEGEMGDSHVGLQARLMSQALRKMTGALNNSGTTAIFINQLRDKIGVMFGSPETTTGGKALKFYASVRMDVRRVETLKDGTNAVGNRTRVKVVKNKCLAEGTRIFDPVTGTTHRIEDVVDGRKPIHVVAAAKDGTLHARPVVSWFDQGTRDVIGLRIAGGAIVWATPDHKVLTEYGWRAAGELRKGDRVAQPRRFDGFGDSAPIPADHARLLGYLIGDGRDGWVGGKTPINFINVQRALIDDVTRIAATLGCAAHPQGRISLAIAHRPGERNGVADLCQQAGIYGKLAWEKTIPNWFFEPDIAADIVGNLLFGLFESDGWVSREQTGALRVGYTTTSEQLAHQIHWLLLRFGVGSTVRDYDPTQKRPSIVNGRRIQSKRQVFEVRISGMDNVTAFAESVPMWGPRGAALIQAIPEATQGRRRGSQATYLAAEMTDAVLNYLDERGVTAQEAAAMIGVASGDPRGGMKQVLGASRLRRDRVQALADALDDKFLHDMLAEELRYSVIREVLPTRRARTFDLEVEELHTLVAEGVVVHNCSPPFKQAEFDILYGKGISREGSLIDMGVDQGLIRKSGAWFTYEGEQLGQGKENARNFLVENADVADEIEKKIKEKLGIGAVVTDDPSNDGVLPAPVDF

[9] = target: Voltage-dependent T-type calcium channel subunit alpha-1H (Homo sapiens, UniProt O95180); format: functional;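 also: channel activity triggered by adding a high calcium stimulation buffer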
Sequence of Voltage-dependent T-type calcium channel subunit alpha-1H (O95180 whole entry, the tested form may be a part): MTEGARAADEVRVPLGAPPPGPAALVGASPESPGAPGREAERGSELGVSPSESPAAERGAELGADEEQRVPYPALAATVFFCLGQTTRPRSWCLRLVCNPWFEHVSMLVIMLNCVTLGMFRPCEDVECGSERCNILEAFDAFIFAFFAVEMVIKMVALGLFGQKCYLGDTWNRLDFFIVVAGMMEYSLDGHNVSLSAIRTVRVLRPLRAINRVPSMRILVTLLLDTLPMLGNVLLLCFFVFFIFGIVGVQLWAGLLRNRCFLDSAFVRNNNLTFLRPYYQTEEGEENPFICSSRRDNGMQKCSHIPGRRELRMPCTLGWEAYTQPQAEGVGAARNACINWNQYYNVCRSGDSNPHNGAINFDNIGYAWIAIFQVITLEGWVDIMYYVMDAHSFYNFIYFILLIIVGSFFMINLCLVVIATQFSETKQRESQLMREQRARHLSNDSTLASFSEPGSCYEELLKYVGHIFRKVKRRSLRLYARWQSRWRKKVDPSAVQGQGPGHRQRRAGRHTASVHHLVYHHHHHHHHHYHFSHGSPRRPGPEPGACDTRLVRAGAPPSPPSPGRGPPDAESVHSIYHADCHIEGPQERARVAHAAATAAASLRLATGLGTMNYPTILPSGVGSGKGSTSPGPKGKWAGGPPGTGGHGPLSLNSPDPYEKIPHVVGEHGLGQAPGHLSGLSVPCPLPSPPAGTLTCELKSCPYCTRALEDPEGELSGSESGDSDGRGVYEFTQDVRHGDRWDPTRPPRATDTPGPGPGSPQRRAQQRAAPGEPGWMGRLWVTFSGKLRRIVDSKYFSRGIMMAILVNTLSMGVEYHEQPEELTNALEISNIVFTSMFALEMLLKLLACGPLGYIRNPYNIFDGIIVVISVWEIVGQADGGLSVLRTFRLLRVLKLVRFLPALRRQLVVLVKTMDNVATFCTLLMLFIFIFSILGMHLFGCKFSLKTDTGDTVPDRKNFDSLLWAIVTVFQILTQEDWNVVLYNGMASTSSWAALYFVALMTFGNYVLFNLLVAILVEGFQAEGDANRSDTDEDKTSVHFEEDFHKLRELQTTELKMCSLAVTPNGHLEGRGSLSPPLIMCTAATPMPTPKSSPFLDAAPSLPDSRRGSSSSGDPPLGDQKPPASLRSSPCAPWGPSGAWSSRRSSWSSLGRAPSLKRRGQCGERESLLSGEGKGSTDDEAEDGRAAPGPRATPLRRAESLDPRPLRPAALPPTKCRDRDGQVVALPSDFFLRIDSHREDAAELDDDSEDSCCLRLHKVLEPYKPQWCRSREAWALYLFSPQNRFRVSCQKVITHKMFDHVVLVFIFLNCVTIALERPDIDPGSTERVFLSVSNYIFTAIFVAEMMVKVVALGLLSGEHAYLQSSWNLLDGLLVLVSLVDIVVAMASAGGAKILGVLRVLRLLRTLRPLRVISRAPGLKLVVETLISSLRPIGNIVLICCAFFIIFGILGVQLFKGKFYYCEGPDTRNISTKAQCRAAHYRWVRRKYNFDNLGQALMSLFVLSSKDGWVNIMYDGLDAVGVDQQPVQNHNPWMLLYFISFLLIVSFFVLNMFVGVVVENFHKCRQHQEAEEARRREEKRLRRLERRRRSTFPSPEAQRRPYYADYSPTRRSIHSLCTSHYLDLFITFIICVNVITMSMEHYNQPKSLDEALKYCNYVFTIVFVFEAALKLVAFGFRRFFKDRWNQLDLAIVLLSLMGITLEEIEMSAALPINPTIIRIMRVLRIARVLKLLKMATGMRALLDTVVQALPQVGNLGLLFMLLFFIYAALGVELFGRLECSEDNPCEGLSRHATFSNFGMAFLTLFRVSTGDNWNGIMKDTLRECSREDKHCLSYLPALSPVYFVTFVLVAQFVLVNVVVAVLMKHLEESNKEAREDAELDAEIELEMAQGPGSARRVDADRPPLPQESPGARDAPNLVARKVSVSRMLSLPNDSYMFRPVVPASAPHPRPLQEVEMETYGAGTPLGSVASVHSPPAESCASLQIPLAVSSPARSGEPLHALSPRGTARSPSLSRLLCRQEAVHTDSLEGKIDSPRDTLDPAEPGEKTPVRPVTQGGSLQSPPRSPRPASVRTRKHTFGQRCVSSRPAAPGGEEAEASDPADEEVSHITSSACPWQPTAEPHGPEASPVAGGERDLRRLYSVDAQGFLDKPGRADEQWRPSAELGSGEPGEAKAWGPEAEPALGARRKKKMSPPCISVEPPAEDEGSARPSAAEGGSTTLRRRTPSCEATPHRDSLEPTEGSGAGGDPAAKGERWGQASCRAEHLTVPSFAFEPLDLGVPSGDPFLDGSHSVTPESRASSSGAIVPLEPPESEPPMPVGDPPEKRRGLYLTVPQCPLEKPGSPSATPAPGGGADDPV

[10] = HIV-1 AD8 envelope cell-cell fusion blockers – cherry-pick, dose response (AID 652062); format: functional, cell-based;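 also: luciferase signal from cell-cell fusion driven by HIV-1 clade B AD8 Env; potency is for inhibitors of fusion seen as a drop in luminescence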
Cytochrome P450 3A4 = Cytochrome P450 3A4 (Homo sapiens, UniProt P08684);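 also: CYP3A4 tested as one member of a cytochrome P450 panel screen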
Sequence of Cytochrome P450 3A4 (P08684 whole entry): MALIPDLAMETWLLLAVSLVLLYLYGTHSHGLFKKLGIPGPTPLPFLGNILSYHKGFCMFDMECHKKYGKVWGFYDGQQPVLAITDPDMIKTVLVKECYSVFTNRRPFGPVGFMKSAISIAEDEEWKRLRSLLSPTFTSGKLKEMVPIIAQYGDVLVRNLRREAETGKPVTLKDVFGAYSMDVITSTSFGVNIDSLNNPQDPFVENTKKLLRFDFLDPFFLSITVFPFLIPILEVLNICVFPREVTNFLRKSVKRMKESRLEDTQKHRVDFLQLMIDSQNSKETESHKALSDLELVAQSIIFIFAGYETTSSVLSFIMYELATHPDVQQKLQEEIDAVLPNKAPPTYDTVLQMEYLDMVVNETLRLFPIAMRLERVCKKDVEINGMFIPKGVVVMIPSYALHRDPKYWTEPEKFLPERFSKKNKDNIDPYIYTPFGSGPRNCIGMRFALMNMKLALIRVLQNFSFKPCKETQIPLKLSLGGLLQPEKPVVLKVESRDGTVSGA

Cytochrome P450 2C19 = Cytochrome P450 2C19 (Homo sapiens, UniProt P33261); assay: Cytochrome panel assay with activity outcomes. Panel member name: p450-cyp2c19 Compounds with AC50 equal or less than 10 uM are considered active; format: functional; conditions: read-out: AC50
Sequence of Cytochrome P450 2C19 (P33261 whole entry): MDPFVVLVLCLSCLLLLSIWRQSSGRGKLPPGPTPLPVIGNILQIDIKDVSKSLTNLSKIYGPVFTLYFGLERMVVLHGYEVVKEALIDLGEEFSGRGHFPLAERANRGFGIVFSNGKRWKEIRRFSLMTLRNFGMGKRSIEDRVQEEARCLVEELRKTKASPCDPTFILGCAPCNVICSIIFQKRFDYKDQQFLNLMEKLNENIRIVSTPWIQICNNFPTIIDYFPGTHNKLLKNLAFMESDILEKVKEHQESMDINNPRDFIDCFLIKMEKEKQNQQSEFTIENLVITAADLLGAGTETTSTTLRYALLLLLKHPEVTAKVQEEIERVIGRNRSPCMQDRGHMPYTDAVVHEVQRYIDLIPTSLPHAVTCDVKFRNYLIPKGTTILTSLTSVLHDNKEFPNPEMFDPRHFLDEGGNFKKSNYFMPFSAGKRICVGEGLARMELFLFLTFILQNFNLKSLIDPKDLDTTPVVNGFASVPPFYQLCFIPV

Cytochrome P450 2D6 = Cytochrome P450 2D6 (Homo sapiens, UniProt P10635);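 also: CYP2D6 member of a cytochrome P450 panel assay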
Sequence of Cytochrome P450 2D6 (P10635 whole entry): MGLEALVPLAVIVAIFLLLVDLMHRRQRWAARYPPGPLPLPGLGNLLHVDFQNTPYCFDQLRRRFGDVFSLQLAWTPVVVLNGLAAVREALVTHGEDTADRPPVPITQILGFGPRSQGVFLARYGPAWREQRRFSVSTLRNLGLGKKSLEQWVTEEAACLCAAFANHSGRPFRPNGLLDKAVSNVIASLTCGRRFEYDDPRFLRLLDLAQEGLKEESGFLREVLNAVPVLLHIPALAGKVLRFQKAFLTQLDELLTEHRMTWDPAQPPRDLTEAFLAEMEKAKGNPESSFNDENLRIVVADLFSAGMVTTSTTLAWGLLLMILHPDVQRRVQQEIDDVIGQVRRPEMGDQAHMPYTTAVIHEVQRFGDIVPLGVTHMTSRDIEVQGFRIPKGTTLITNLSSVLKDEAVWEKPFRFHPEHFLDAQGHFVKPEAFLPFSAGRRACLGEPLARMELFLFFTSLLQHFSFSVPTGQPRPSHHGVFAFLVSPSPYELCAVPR

[11] = Trypanosoma cruzi growth suppression in host cells – NIH3T3 host cells, beta-gal luminescence, confirmation (AID 2044); format: functional, cell-based;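 also: intracellular parasites grown in NIH/3T3 mouse fibroblasts as host cells; luminescent beta-galactosidase reporter signal from transgenic T. cruzi replicating inside host cells; inhibitors lower the luminescence signal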
[12] = viability of PTEN-deleted HCT116 cells – cell-based, HCT116 PTEN knockout, dose response (AID 1047); format: functional;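 also: HCT116 colon tumor cells with PTEN knocked out; cells exposed to compound for 60 hours before readout; potency for loss of cell viability measured by luminescence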
[13] = NIH3T3 cell viability loss – ATP luminescence, mouse fibroblasts, counter-screen, dose response (AID 2010); format: functional, cell-based;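 also: cells exposed to compound for about 90 hours before reading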
[14] = viability of HCT116 lacking mutant beta-catenin – cell-based, human colon tumor, dose response (AID 1045); format: functional;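 also: HCT116 colon tumor cells with beta catenin knocked out; cells exposed to compound for 60 hours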
[15] = Luminescence Cell-Based Dose Retest to Confirm Inhibitors of Cancer Stem Cells. [Related pubchem assays (depositor defined):AID2717, AID2721]; format: functional; conditions: Homo sapiens

CCCCc1cc(-c2nnc(S)o2)c2ccccc2n1
IC50 [1]: 13.2 µM (active)

CC1CCN(S(=O)(=O)c2ccc3c(c2)c(=O)c(C(=O)NC2CCCC2)cn3C)CC1
IC50 [1]: 12 µM (active)

CC1CCCCN1CCNC(=O)c1ccc2c(=O)n(Cc3ccc(Cl)cc3)c(=S)[nH]c2c1 (stereo not drawn)
IC50 [2]: > 20 µM (inactive)

Cc1ccc(S(=O)(=O)N[C@H]2COC(=O)C/C=C\[C@@H](C)COC(=O)C/C=C\[C@@H]2C)cc1
AC50 (Cytochrome P450 2C9): inconclusive

O=C(Nc1cccc(S(=O)(=O)NC2=NCCC2)c1)c1cc(Cl)ccc1[N+](=O)[O-]
IC50 [1]: 11.8 µM (active)

Cc1snc(SCC(=O)NN=C(N)COc2cccc(C(F)(F)F)c2)c1C#N
EC50 (cells [3]): > 350 µM (not active) | EC50 (cells [4]): > 350 µM (not active)

Cc1cc(C)cc(NC(=O)CCc2nc3ccccc3[nH]2)c1
AC50 (Cytochrome P450 1A2): 3.16 µM (inconclusive) | AC50 (Cytochrome P450 2C9): inconclusive

COc1ccc(Sc2nnc(Cc3ccccc3)c3ccccc23)cc1
IC50 [5]: > 66 µM (inactive) | IC50 [6]: > 66 µM (inactive)

CCCCC(O)(CCCC)C(=O)NN(C(=O)CCl)c1ccccc1
CC50 [7]: 12.1 µM (active) | AC50 [8]: 15 µM (active) | EC50 (Protein RecA): 2.45 µM (active)

COc1ccc(C(CNC(=O)c2cc3c(s2)CCC(C)C3)N2CCCC2)cc1 (stereo not drawn)
IC50 [2]: > 20 µM (inactive)

COc1ccccc1N1CCN(C(c2ccccc2Cl)c2nnnn2C(C)(C)C)CC1 (stereo not drawn)
EC50 [9]: 11.7 µM (active)

CCC(c1nnnn1C(C)(C)C)N1CCN(c2cc(Cl)ccc2C)CC1 (stereo not drawn)
EC50 [9]: 5.94 µM (active)

COC(=O)c1c(NC(=O)c2nc3ccccc3s2)sc2c1CCN(C(C)=O)C2
IC50 [2]: > 20 µM (inactive)

COc1cc(C(=O)N2CCN(C(=O)Cc3ccccc3)CC2)cc(OC)c1OC
EC50 (cells [3]): > 350 µM (not active) | EC50 (cells [4]): > 350 µM (not active)

CCc1cnccc1CCC(=O)Nc1ccccc1C
EC50 (cells [3]): > 350 µM (not active) | EC50 (cells [4]): 52 µM (active)

CCc1cc2c(NCc3ccco3)ncnc2s1
IC50 [1]: 10 µM (active) | AC50 [10]: 32.3 µM (active) | AC50 (Cytochrome P450 3A4): 25.1 µM (inconclusive)

CN1C(=O)SC(Nc2ccccc2C(=O)O)C1=O (stereo not drawn)
IC50 [5]: > 66 µM (inactive) | IC50 [6]: > 66 µM (inactive)

Nc1ccc(S(=O)(=O)Nc2nccs2)cc1 [SULFATHIAZOLE]
AC50 (Cytochrome P450 2C9): inconclusive

C/C(=N\OC(=O)c1cccc(C)c1)c1sc(-c2ccccc2)nc1C
AC50 (Cytochrome P450 2C19): 8.91 µM (inconclusive) | AC50 (Cytochrome P450 2C9): inconclusive

COc1ccc(N2C(=O)[C@@H]3C(c4cccnc4)=NO[C@@H]3C2=O)cc1
EC50 (cells [3]): > 350 µM (not active) | EC50 (cells [4]): > 350 µM (not active)

COc1ccccc1N1CCN(CC(=O)c2c(C)[nH]c3cc(C)ccc23)CC1
EC50 [9]: 5.63 µM (active) | AC50 [8]: 5.47 µM (active) | EC50 (Protein RecA): 94.2 µM (active)

CC(C)[C@@H]1CN=C(N)N1C[C@@H]1CCCN1C[C@H](C)N1C[C@@H](Cc2ccccc2)N(CCc2ccc(Cl)c(Cl)c2)C1=N
IC50 [2]: > 20 µM (inactive)

CN1CCN(c2ncc3nc(-c4cc(F)cc(F)c4)c(=O)n(C)c3n2)CC1
AC50 (Cytochrome P450 1A2): 5.01 µM (inconclusive) | AC50 (Cytochrome P450 2C9): inconclusive

CCN(CC)c1ccc(/C=C2/C(=O)NC(=O)N(CC3CCCO3)C2=O)cc1 (stereo not drawn)
AC50 (Cytochrome P450 2C9): inconclusive

Cc1cnc(CNc2ccnc(-c3cccnc3)n2)cn1
AC50 (Cytochrome P450 2D6): 25.1 µM (inconclusive) | AC50 (Cytochrome P450 2C9): inconclusive

COc1cc(CNCCc2c[nH]c3ccccc23)ccc1OCc1ccccc1F
EC50 [11]: 0.196 µM (active) | EC50 [12]: 15.3 µM (active) | EC50 [13]: > 60 µM (inconclusive) | EC50 [14]: 13.6 µM (active) | AC50 [15]: 4.72 µM (active) | IC50 [2]: > 20 µM (inactive)

CN1CCN(C(=S)NC(=O)c2ccc(S(=O)(=O)N3CCOCC3)cc2)CC1
IC50 [5]: > 66 µM (inactive) | IC50 [6]: > 66 µM (inactive)

Cc1ccc(C(c2nnnn2C(C)(C)C)N(Cc2ccco2)Cc2cccs2)cc1 (stereo not drawn)
EC50 [11]: 2.26 µM (active) | EC50 [13]: > 30 µM (not active) | EC50 [9]: 6.33 µM (active)

Cc1ccc(-c2nnc(CSc3nnc(COc4ccccc4)n3-c3ccccc3)o2)cc1
EC50 [9]: 3.32 µM (active)

From ChEMBL document CHEMBL1201862, “PubChem BioAssay data set” (2004)
